The values that follow come from PMC10994195 (Journal of medicinal chemistry, 2024).

One series addresses FmlH (Escherichia coli, UniProt A0A0H2V7F6). In words: ELISA of FmlH lectin domain binding with TF antigen as competitive ligand. More on the design: species or system uropathogenic Escherichia coli (UPEC). To be noted: for loss of activity relative to parent compound I: FmlH ELISA IC50 ratio. (An ELISA detects its analyte on a solid surface through an enzyme-linked reagent.)
Series [1] is described as follows: In vivo pharmacokinetics in mice. The note with it: mice plasma PK.
Another series is described as follows: Mouse pharmacokinetics. The format is in vivo, C3H/HeN mice. The note with it: mice, PO.
For series [2] the following is noted: rats; cited from earlier work.
For series [3] the following is noted: cited from earlier work.

As to `CC(=O)N[C@H]1[C@H](Oc2cccc(C(F)(F)F)c2-c2cccc(CS(C)(=O)=O)c2)O[C@H](CO)[C@H](O)[C@@H]1O` [Compound 9], the “loss of activity relative to parent compound I” value on FmlH is ~ 10 fold.

With `CC(=O)N[C@H]1[C@H](Oc2cccc(C(F)(F)F)c2-c2cccc(C(=O)NS(C)(=O)=O)c2)O[C@H](CO)[C@H](O)[C@@H]1O` [Compound 11], at FmlH, the “loss of activity relative to parent compound I” value is given as ~ 10 fold.

As for `CC(=O)N[C@H]1[C@H](Oc2cccc(C(F)(F)F)c2-c2ccc(F)cc2)O[C@H](CO)[C@H](O)[C@@H]1O` [Compound 69], in series [1], the “AUC relative to 67” value is on record as around 4 fold. Moreover, the “urine concentration relative to FmlH IC50” value in “Mouse pharmacokinetics” is reported as “over 300 fold”. Moreover, in the series “Mouse pharmacokinetics” (high urine concentration quoted in the conclusion), the urine concentration achieved was found to be 61 µM.

For the molecule `CC(=O)N[C@H]1[C@H](Oc2cccc(C(F)(F)F)c2-c2cccc(NS(C)(=O)=O)c2)O[C@H](CO)[C@H](O)[C@@H]1O` [I], in series [2], the “oral bioavailability (F)” value was below 1%. Also, in series [3] (SGF, SIF, mouse liver microsomes, blood plasma), the metabolic stability result is “good metabolic stability”. Also, the “stability in plasma and simulated gut and intestinal fluids” value in series [3] is reported as “good stability”.

For the molecule `CS(=O)(=O)Nc1cccc(-c2ccccc2C[C@@H]2O[C@H](CO)[C@H](O)[C@H](O)[C@H]2F)c1` [Compound 28], the “improvement of potency on replacing 2-position OH with F” value at FmlH (FmlH ELISA, relative to 27) came to 2 fold.

As to `CS(=O)(=O)Nc1cccc(-c2ccccc2C[C@@H]2O[C@H](CO)[C@H](O)[C@H](O)[C@H]2[N+](=O)[O-])c1` [Compound 34], the IC50 result on FmlH (FmlH ELISA, average of four replicates) is given as “all activity against FmlH was eliminated”.
